A short description of this test: Inhibition of angiotensin II (unknown origin).

As for `CCCCc1nc2ccc(C3CC(C(=O)OCC)=NO3)cc2c(=O)n1Cc1ccc(-c2ccccc2-c2nnnn2C(c2ccccc2)(c2ccccc2)c2ccccc2)cc1` (configuration not stated), the IC50 was found to be 22 nM.

The compound `CCCCc1nc2ccc(C3CC(c4ccc(C)cc4)=NO3)cc2c(=O)n1Cc1ccc(-c2ccccc2-c2nnnn2C(c2ccccc2)(c2ccccc2)c2ccccc2)cc1` (configuration not stated) returned a 50% inhibitory concentration (IC50) of 22 nM.

For orientation: IC50 means the concentration that inhibits the measured activity by half.

(Values after BindingDB's records for PubMed 29656203 (n/a, 2018).)
